Assay results published in US10208083B2 (priority 2015, dated 2019).
Marks after values point to notes of the source that are not given here.

Legend:
PC-3 = assay: cells; format: cell-based, human; parameters: TGI: unit not given here; conditions: for GI50 / IC50: Homo sapiens, PC-3, 48 h
MCF-7 = assay: cells; format: cell-based, human; parameters: TGI: unit not given here; conditions: for GI50 / IC50: Homo sapiens, MCF7, 48 h
UWB1.289 + BRCA1 = assay: cells; format: cell-based, human; parameters: TGI: unit not given here; conditions: for GI50 / IC50: Homo sapiens, UWB1289, 48 h
SKOV-3 = assay: cells; format: cell-based, human; parameters: TGI: unit not given here; conditions: for GI50 / IC50: Homo sapiens, SK-OV-3, 48 h
OVCAR-3 = assay: cells; format: cell-based, human; parameters: TGI: unit not given here; conditions: for GI50 / IC50: Homo sapiens, OVCAR-3, 48 h
[1] = test system: SCOV-3 human ovarian cancer; conditions: in vivo; on OS % on Day-70: test concentration or dose not given here; on PFS % on Day-70: test concentration or dose not given here
T-47D = assay: cells; format: cell-based, human; parameters: TGI: unit not given here; conditions: for GI50 / IC50: Homo sapiens, T47D, 48 h
in vivo = conditions: female, C57Bl/6, mouse, ip
C57Bl/6 mice = conditions: female, C57Bl/6, mouse, in vivo, ip
MOLT-4 = assay: cells; format: cell-based, human; parameters: TGI: unit not given here; conditions: for GI50 / IC50: Homo sapiens, MOLT-4, 48 h
[2] = test system: murine P388 lymphocytic leukemia; parameters: species or system mice; conditions: mouse, in vivo, ip; further: test concentration or dose not given here
K-562 = assay: cells; format: cell-based, human; parameters: TGI: unit not given here; conditions: for GI50 / IC50: Homo sapiens, K562, 48 h
UWB1.289 = assay: cells; format: cell-based, human; parameters: TGI: unit not given here; conditions: for GI50 / IC50: Homo sapiens, UWB1289, 48 h

## C[C@]12CC[C@H](OC(=O)Cc3ccc(N(CCCl)CCCl)cc3)C[C@@H]1CC[C@@H]1[C@@H]2CC[C@@]2(C)NC(=O)CC[C@@H]12 [ASE, 3beta-hydroxy-13alpha-amino-13,17-seco-5alpha-androstan-17-oic-13,17-lactam-[p-[bis (2-chloroethyl)amino]phenyl]acetate, reference compound]
PC-3
  TGI: 49
  GI50: 34 µM
  IC50: 89 µM
MCF-7
  TGI: 57
  GI50: 29 µM
  IC50: 96 µM
UWB1.289 + BRCA1
  TGI: >100
  GI50: 80 µM
  IC50: > 100 µM
SKOV-3
  TGI: 92
  GI50: 45 µM
  IC50: > 100 µM
OVCAR-3
  TGI: 52
  GI50: 36 µM
  IC50: 64 µM
[1]
  OS % on Day-70: 80%
  PFS % on Day-70: 40%
  TI % at Day-35: 34%
T-47D
  TGI: 47
  GI50: 22 µM
  IC50: 92 µM
In vivo
  LD50: 50 mg/kg
C57Bl/6 mice
  LD10: 30 mg/kg
MOLT-4
  TGI: 56
  GI50: 8 µM
  IC50: 93 µM
[2]
  Cures: 0/6
  MST ± SD: 24 days
  T/C %: 267* %
K-562
  TGI: 78
  GI50: 9 µM
  IC50: > 100 µM
UWB1.289
  TGI: 30
  GI50: 16 µM
  IC50: 54 µM

## C[C@]12CC[C@H]3[C@@H](CCC4=CC(=O)NCC[C@@]43C)[C@@H]1CC[C@@H]2OC(=O)CCOc1ccc(N(CCCl)CCCl)cc1 [Compound 3]
PC-3
  TGI: 30
  GI50: 22 µM
  IC50: 56 µM
MCF-7
  TGI: 38
  GI50: 17 µM
  IC50: 70 µM
UWB1.289 + BRCA1
  TGI: 25
  GI50: 12 µM
  IC50: 40 µM
SKOV-3
  TGI: 52
  GI50: 18 µM
  IC50: 76 µM
OVCAR-3
  TGI: 32
  GI50: 21 µM
  IC50: 42 µM
[1]
  OS % on Day-70: 100%
  PFS % on Day-70: 100%
  TI % at Day-35: 62%
T-47D
  TGI: 25
  GI50: 10 µM
  IC50: 66 µM
In vivo
  LD50: 150 mg/kg
C57Bl/6 mice
  LD10: 130 mg/kg
MOLT-4
  TGI: 27
  GI50: 3 µM
  IC50: 65 µM
[2]
  Cures: 0/6
  MST ± SD: 39 days
  T/C %: 433* %
K-562
  TGI: 30
  GI50: 3 µM
  IC50: 71 µM
UWB1.289
  TGI: 8
  GI50: 3 µM
  IC50: 20 µM

## C[C@]12CC[C@@H]3c4ccc(OC(=O)CCOc5ccc(N(CCCl)CCCl)cc5)cc4CC[C@H]3[C@@H]1CCC(=O)N2 [Compound 6]
PC-3
  TGI: 29
  GI50: 16 µM
  IC50: 51 µM
MCF-7
  TGI: 36
  GI50: 15 µM
  IC50: 65 µM
UWB1.289 + BRCA1
  TGI: 66
  GI50: 18 µM
  IC50: 88 µM
SKOV-3
  TGI: 76
  GI50: 12 µM
  IC50: > 100 µM
OVCAR-3
  TGI: 40
  GI50: 30 µM
  IC50: 56 µM
[1]
  OS % on Day-70: 100%
  PFS % on Day-70: 100%
  TI % at Day-35: 56%
T-47D
  TGI: 30
  GI50: 10 µM
  IC50: 55 µM
In vivo
  LD50: 100 mg/kg
C57Bl/6 mice
  LD10: 80 mg/kg
MOLT-4
  TGI: 28
  GI50: 5 µM
  IC50: 50 µM
[2]
  Cures: 0/6
  MST ± SD: 36 days
  T/C %: 400* %
K-562
  TGI: 30
  GI50: 5 µM
  IC50: 50 µM
UWB1.289
  TGI: 20
  GI50: 6 µM
  IC50: 44 µM

## C[C@]12CC(=O)[C@H]3[C@@H](CCC4=CC(=O)NCC[C@@]43C)[C@@H]1CC[C@@H]2OC(=O)CCOc1ccc(N(CCCl)CCCl)cc1 [Compound 11]
PC-3
  TGI: 44
  GI50: 29 µM
  IC50: 68 µM
MCF-7
  TGI: 68
  GI50: 25 µM
  IC50: > 100 µM
UWB1.289 + BRCA1
  TGI: 31
  GI50: 22 µM
  IC50: 42 µM
SKOV-3
  TGI: 32
  GI50: 20 µM
  IC50: 44 µM
OVCAR-3
  TGI: 18
  GI50: 8 µM
  IC50: 22 µM
[1]
  OS % on Day-70: 100%
  PFS % on Day-70: 100%
  TI % at Day-35: 73%
T-47D
  TGI: 59
  GI50: 26 µM
  IC50: 98 µM
In vivo
  LD50: 130 mg/kg
C57Bl/6 mice
  LD10: 100 mg/kg
MOLT-4
  TGI: 20
  GI50: 1.5 µM
  IC50: 45 µM
[2]
  Cures: 1/6
  MST ± SD: 56 days
  T/C %: 622* %
K-562
  TGI: 35
  GI50: 2 µM
  IC50: 55 µM
UWB1.289
  TGI: 20
  GI50: 6 µM
  IC50: 25 µM

## C[C@]12CC(=O)N[C@H]3[C@@H](CCC4=CC(=O)NCC[C@@]43C)[C@@H]1CC[C@@H]2OC(=O)CCOc1ccc(N(CCCl)CCCl)cc1 [Compound 16]
PC-3
  TGI: 29
  GI50: 16 µM
  IC50: 51 µM
MCF-7
  TGI: 36
  GI50: 15 µM
  IC50: 65 µM
UWB1.289 + BRCA1
  TGI: 32
  GI50: 12 µM
  IC50: 50 µM
SKOV-3
  TGI: 46
  GI50: 20 µM
  IC50: 70 µM
OVCAR-3
  TGI: 20
  GI50: 9 µM
  IC50: 35 µM
[1]
  OS % on Day-70: 100%
  PFS % on Day-70: 100%
  TI % at Day-35: 55%
T-47D
  TGI: 30
  GI50: 10 µM
  IC50: 55 µM
In vivo
  LD50: 165 mg/kg
C57Bl/6 mice
  LD10: 140 mg/kg
MOLT-4
  TGI: 36
  GI50: 4 µM
  IC50: 56 µM
[2]
  Cures: 0/6
  MST ± SD: 44 days
  T/C %: 489* %
K-562
  TGI: 47
  GI50: 7 µM
  IC50: 65 µM
UWB1.289
  TGI: 28
  GI50: 3 µM
  IC50: 40 µM

## C[C@]12CC[C@H](OC(=O)CCOc3ccc(N(CCCl)CCCl)cc3)CC1=CC(=O)N[C@@H]1[C@@H]2CC[C@]2(C)C(=O)CC[C@@H]12 [Compound 18]
PC-3
  TGI: 36
  GI50: 23 µM
  IC50: 70 µM
MCF-7
  TGI: 46
  GI50: 21 µM
  IC50: 79 µM
UWB1.289 + BRCA1
  TGI: 38
  GI50: 20 µM
  IC50: 69 µM
SKOV-3
  TGI: 46
  GI50: 24 µM
  IC50: 68 µM
OVCAR-3
  TGI: 47
  GI50: 20 µM
  IC50: 70 µM
[1]
  OS % on Day-70: 100%
  PFS % on Day-70: 80%
  TI % at Day-35: 44%
T-47D
  TGI: 32
  GI50: 14 µM
  IC50: 72 µM
In vivo
  LD50: 110 mg/kg
C57Bl/6 mice
  LD10: 85 mg/kg
MOLT-4
  TGI: 38
  GI50: 5 µM
  IC50: 76 µM
[2]
  Cures: 0/6
  MST ± SD: 34 days
  T/C %: 378* %
K-562
  TGI: 38
  GI50: 6 µM
  IC50: 87 µM
UWB1.289
  TGI: 42
  GI50: 13 µM
  IC50: 70 µM
